Assay [1] can be described thus: Ratio of kinetic constant k inact to KI was determined.
In assay [2] the target is T1, Dopamine beta-hydroxylase (Bos taurus) (UniProt P15101).
T1 sequence (whole entry): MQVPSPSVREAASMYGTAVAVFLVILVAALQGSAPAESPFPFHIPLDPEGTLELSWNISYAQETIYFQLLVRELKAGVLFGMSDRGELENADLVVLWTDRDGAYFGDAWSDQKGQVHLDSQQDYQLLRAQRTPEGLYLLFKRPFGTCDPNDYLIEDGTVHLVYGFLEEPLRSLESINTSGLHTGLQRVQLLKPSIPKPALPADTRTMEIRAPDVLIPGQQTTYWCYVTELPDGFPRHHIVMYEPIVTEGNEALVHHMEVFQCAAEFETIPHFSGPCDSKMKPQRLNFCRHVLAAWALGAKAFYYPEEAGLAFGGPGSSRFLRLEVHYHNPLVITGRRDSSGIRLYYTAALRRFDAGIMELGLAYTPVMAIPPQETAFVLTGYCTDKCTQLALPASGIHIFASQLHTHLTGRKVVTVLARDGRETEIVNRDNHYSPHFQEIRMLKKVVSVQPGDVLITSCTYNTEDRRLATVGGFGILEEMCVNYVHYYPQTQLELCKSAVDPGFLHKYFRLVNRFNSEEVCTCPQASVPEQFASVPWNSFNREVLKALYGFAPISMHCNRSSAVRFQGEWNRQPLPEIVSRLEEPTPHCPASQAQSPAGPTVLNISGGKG
The assay can be described thus: Kinetic constant for inactivation (k inact) of Dopamine beta-Hydroxylase (DBH) from bovine adrenal medulla. It counts as tissue-based.

Assay [3] addresses T2, Dopamine beta-hydroxylase (Bos taurus, UniProt P15101).
T2 sequence (P15101 whole entry): T1 sequence (whole entry)
Briefly: Kinetic constant for inhibition (KI) of Dopamine beta-Hydroxylase (DBH) from bovine adrenal medulla. In kind it is tissue-based.

For 11 compounds, Ratio, K inact and Ki results are on record in ChEMBL document CHEMBL1128891, “Synthesis of indane derivatives as mechanism-based inhibitors of dopamine -hydroxylase” (Bioorg Med Chem Lett, 1995).

Each structure is given as a SMILES string.

Consider `c1c2c(cc3c1OCO3)C1CC1C2` (configuration not stated), for which the Ratio in assay [1] was determined as 370 M⁻¹ min⁻¹. Besides, in assay [2], the K inact came to 0.06 min⁻¹. In addition, in assay [3], the inhibition constant (Ki) is 160 µM.
Turning to `c1ccc2c(c1)CC1OC21` (configuration not stated), the Ratio in assay [1] came out at 70 M⁻¹ min⁻¹. Moreover, in assay [2], the K inact worked out at 0.08 min⁻¹. The Ki in assay [3] worked out at 1060 µM.
`Oc1cc2c(cc1O)C1CC1C2` (configuration not stated): in assay [1], the Ratio worked out at 1180 M⁻¹ min⁻¹. Moreover, in assay [2], the K inact was found to be 0.129 min⁻¹. This compound returned a Ki in assay [3] of 109 µM.
For `COc1ccc(CC2CC2)cc1`, in assay [1], the Ratio stood at 75 M⁻¹ min⁻¹. This compound also returned a K inact in assay [2] of 0.018 min⁻¹. The compound also yielded a Ki in assay [3] of 240 µM.
As for `COc1ccc2c(c1)C1CC1C2` (configuration not stated), the Ratio in assay [1] amounted to 100 M⁻¹ min⁻¹. The compound also had a K inact in assay [2] of 0.11 min⁻¹. In addition, the Ki in assay [3] came out at 1120 µM.
On to `Oc1ccc2c(c1)C1CC1C2` (configuration not stated), for which the Ratio in assay [1] amounted to 1530 M⁻¹ min⁻¹. Further, in assay [2], the K inact was determined as 0.23 min⁻¹. Also, the Ki in assay [3] worked out at 150 µM.
As to `Oc1ccc(CC2CC2)cc1`, in assay [1], the Ratio worked out at 150 M⁻¹ min⁻¹. In addition, in assay [3], the Ki came out at 12000 µM.
Consider `COc1ccc2c(c1)C1NC1C2` (configuration not stated), for which the Ratio in assay [1] came out at 70 M⁻¹ min⁻¹. In assay [2], this compound registered a K inact of 0.03 min⁻¹. In assay [3], this compound registered an inhibitory constant (Ki) of 400 µM.
`COc1ccc2c(c1)C1OC1C2` (configuration not stated): the Ratio in assay [1] is 110 M⁻¹ min⁻¹. Besides, in assay [2], the K inact is 0.07 min⁻¹. In addition, the affinity in assay [3] corresponds to a Ki of 650 µM.
For `c1ccc2c(c1)CC1CC21` (configuration not stated), the Ratio in assay [1] turned out to be 70 M⁻¹ min⁻¹. This compound also gave a K inact in assay [2] of 0.2 min⁻¹. In addition, in assay [3], the affinity, expressed as Ki, was 3030 µM.
With `c1c2c(cc3c1OCO3)C1OC1C2` (configuration not stated), the Ratio in assay [1] came to 60 M⁻¹ min⁻¹. This compound showed a K inact in assay [2] of 0.06 min⁻¹. This compound also gave a Ki in assay [3] of 1010 µM.

The Ki is the dissociation constant of the complex between target and ligand, obtained from inhibition or displacement. The low end stands for higher affinity, the high end for lower affinity.
